In US20120214821A1, “Lipidomic Biomarkers of Diabetes” (THE BROAD INSTITUTE, INC., priority 2011, published 2012):

What was measured:
[1] = 20 non-diabetic individuals, after four doses of metformin 500 mg over two days; baseline 95 mg/dL; p=0.022
Protocol: (§1) Pharmacologic studies were performed as follows. […] After a washout period of 6 days, subjects received metformin 500 mg twice daily for two days in order to reduce hepatic gluconeogenesis, and then underwent a 75 g OGTT in the presence of metformin. […] From the first 164 subjects completing the protocol, 20 participants were selected who represented both high and low ends of the HOMA-IR range.
(§2) OGTT causes an acute rise in plasma glucose, which then triggers a rise in insulin.
(§3) After a washout period of 6 days, these 20 individuals were then administered four doses of metformin (500 mg) over two days. Although chronic metformin use decreases insulin resistance, its acute effect is to decrease hepatic glucose output, and as a result, lower plasma insulin (10).

plasma TAGs = details: 20 non-diabetic individuals, after four doses of metformin 500 mg over two days (FIG. 6C)
Protocol: as §1, §2, §3

For `CN(C)C(=N)N=C(N)N` [metformin], the mean plasma glucose [1] was 86 mg/dL and the “TAG response (change of plasma TAGs by carbon number and double bond content)” value (plasma TAGs) was “an increase in TAGs of lower carbon number and double bond content, and a decrease in TAGs of higher carbon number and double bond content”.
